Measurements from ChEMBL document CHEMBL1154415, “Population pharmacokinetics and pharmacodynamics of continuous versus short-term infusion of imipenem-cilastatin in critically ill patients in a randomized, controlled trial” (Antimicrob Agents Chemother, 2007).

Columns and labels:
[1] = Total clearance in nosocomial pneumonia patient at 1 g administered every 8 hrs for 3 days as shot-term iv infusion for 40 mins or at a loading dose of 1 g and maintenance dose of 2 g administered daily for 3 days as continuous iv infusion presence of cilastatin maintenance dose administered as continuous fusion at 8 hrs interval over 72 hrs in presence of cilastatin; format: ADME, organism-based; conditions: human, in vivo
[2] = Plasma concentration in nosocomial pneumonia patient at loading dose of 1 g and maintenance dose of 2 g administered daily for 3 days as continuous infusion measured after 72 hrs in presence of cilastatin; format: ADME, organism-based; conditions: human, iv
[3] = test system: Serum; experiment: Protein binding in human serum by ultrafiltration technique in presence of cilastatin; format: ADME, cell-free
[4] = organism: Homo sapiens; experiment: Toxicity in nosocomial pneumonia patient assessed as induction of seizures in presence of cilastin; format: organism-based; conditions: in vivo

Question: What does the source list for `C[C@@H](O)[C@H]1C(=O)N2C(C(=O)O)=C(SCCN=CN)C[C@H]12` [IMIPENEM ANHYDROUS]?
Answer: clearance [1]: 205 mL/min; concentration at 72 h [2]: 8650 ng/mL; Activity [3]: 20%; Activity [4]: Non-toxic
